Experimental data as given in patent US7115545B1, “Tricyclic benzoylpyrazole derivatives used as a herbicide” (BASF Aktiengesellschaft, priority 1999, dated 2006).

Columns and labels:
[1] = system: Setaria viridis; assay: greenhouse post-emergence herbicidal test; type: in vivo; conditions: post-emergence method, application rates of 0.5 or 0.25 kg/ha, Setaria viridis (green foxtail)
From the text: (§1) The seeds of the test plants were sown separately for each species. For post-emergence treatment, the test plants were first grown to a plant height of from 3 to 15 cm, depending on the plant habit, and only then treated with the active compounds which had been suspended or emulsified in water. For this purpose, the test plants were either sown directly and grown in the same containers, or they were first grown separately as seedlings and transplanted into the test containers a few days prior to the treatment. The application rate for the post-emergence treatment was 0.5 or 0.25 kg of a.s./ha. Depending on the species, the plants were kept at 10–25° C. or 20–35° C. The test period extended over 2 to 4 weeks. During this time, the plants were tended, and their response to the individual treatments was evaluated. Evaluation was carried out using a scale from 0 to 100. 100 means no emergence of the plants, or complete destruction of at least the above-ground parts, and 0 means no damage, or normal course of growth. The plants used in the greenhouse trials were of the following species: [table]

[2] = system: Echinochloa crusgalli; assay: greenhouse post-emergence herbicidal test; type: in vivo; conditions: post-emergence method, application rates of 0.5 or 0.25 kg/ha, Echinochloa crusgalli (barnyardgrass)
From the text: as §1

[3] = system: Solanum nigrum; assay: greenhouse post-emergence herbicidal test; type: in vivo; conditions: post-emergence method, application rates of 0.5 or 0.25 kg/ha, Solanum nigrum (black nightshade)
From the text: as §1

[4] = system: Veronica ssp.; assay: greenhouse post-emergence herbicidal test; type: in vivo; conditions: post-emergence method, application rates of 0.5 or 0.25 kg/ha
From the text: as §1

[5] = system: Chenopodium album; assay: greenhouse post-emergence herbicidal test; type: in vivo; conditions: post-emergence method, application rates of 0.5 or 0.25 kg/ha, Chenopodium album (lambsquarters)
From the text: as §1

Cn1ncc(C(=O)c2ccc(S(C)(=O)=O)c3c2CC2CON=C32)c1OC(=O)c1ccccc1 (stereo not drawn) [compound 2.2, (5-Phenylcarbonyloxy-1-methyl-1H-pyrazol-4-yl)-(8-methyl-sulfonyl-3a,4-dihydro-3H-indeno[1,2-c]isoxazol-5-yl)methanone]
melting point: 86 to 93 °C
herbicidal activity [1]: very good activity
herbicidal activity [2]: very good activity
herbicidal activity [3]: very good activity
herbicidal activity [4]: very good activity
herbicidal activity [5]: very good activity
